Legend:
Test in all cases: greenhouse pre-emergence herbicidal test
Format in all cases: in vivo
Conditions in all cases: 250 g/ha, scale 0 to 100
Setaria faberi = tested on: Setaria faberi
Excerpt: The culture containers used were plastic flowerpots containing loamy sand with approximately 3.0% of humus as the substrate. The seeds of the test plants were sown separately for each species. For the pre-emergence treatment, the active ingredients, which had been suspended or emulsified in water, were applied directly after sowing by means of finely distributing nozzles. The containers were irrigated gently to promote germination and growth and subsequently covered with transparent plastic hoods until the plants had rooted. This cover caused uniform germination of the test plants, unless this had been impaired by the active ingredients. […] The test period extended over 2 to 4 weeks. During this time, the plants were tended, and their response to the individual treatments was evaluated. Evaluation was carried out using a scale from 0 to 100. 100 means no emergence of the plants, or complete destruction of at least the aerial moieties, and 0 means no damage, or normal course of growth.

Echinocloa crus-galli = tested on: Echinocloa crus-galli
Excerpt: (§1) The culture containers used were plastic flowerpots containing loamy sand with approximately 3.0% of humus as the substrate. The seeds of the test plants were sown separately for each species.
(§2) For the pre-emergence treatment, the active ingredients, which had been suspended or emulsified in water, were applied directly after sowing by means of finely distributing nozzles. The containers were irrigated gently to promote germination and growth and subsequently covered with transparent plastic hoods until the plants had rooted. This cover caused uniform germination of the test plants, unless this had been impaired by the active ingredients.
(§3) Depending on the species, the plants were kept at 10-25° C. or 20-35° C., respectively.
(§4) The test period extended over 2 to 4 weeks. During this time, the plants were tended, and their response to the individual treatments was evaluated.
(§5) Evaluation was carried out using a scale from 0 to 100. 100 means no emergence of the plants, or complete destruction of at least the aerial moieties, and 0 means no damage, or normal course of growth. A moderate herbicidal activity is given at values of at least 60, a good herbicidal activity is given at values of at least 70, and a very good herbicidal activity is given at values of at least 85.

Alopercurus myosuroides = tested on: Alopercurus myosuroides
Excerpt: as §1, §2, §3, §4, §5

Amaranthus retroflexus = tested on: Amaranthus retroflexus
Excerpt: as §1, §2, §3, §4, §5

Compound | herbicidal activity (Setaria faberi) | herbicidal activity (Echinocloa crus-galli) | herbicidal activity (Alopercurus myosuroides) | herbicidal activity (Amaranthus retroflexus)
CC(C)(F)c1nc(N)nc(Nc2c(F)cccc2OCc2ccccc2)n1 [Example 4] | 100% | 100% | 100% | 100%
Nc1nc(Nc2c(F)cccc2OCc2ccccc2)nc(C2(F)CCCC2)n1 [Example 5] | 98% | 100% | 85% | 98%
Cc1ccc(COc2cccc(F)c2Nc2nc(N)nc(C(C)(C)F)n2)cc1 [Example 9] | 100% | 100% | 80% | 95%
COc1cccc(COc2cccc(F)c2Nc2nc(N)nc(C(C)(C)F)n2)c1 [Example 10] | 100% | 100% | 100% | 100%
CC(C)(F)c1nc(N)nc(Nc2c(F)cccc2OCc2cccc(F)c2)n1 [Example 11] | 100% | 100% | 100% | 100%
Nc1nc(Nc2c(F)cccc2OCc2cccc(F)c2)nc(C2(F)CCCC2)n1 [Example 18] | 85% | 70% | 70% | 70%
Nc1nc(Nc2c(F)cccc2OCc2ccccc2F)nc(C2(F)CCCC2)n1 [Example 19] | 85% | – | 70% | 80%
COc1ccc(COc2cccc(F)c2Nc2nc(N)nc(C(C)(C)F)n2)cc1 [Example 20] | 95% | 100% | 100% | 98%
CC(C)(F)c1nc(N)nc(Nc2c(F)cccc2OCc2cnc(Cl)s2)n1 [Example 39] | 90% | 100% | 90% | 80%
CC(C)(F)c1nc(N)nc(Nc2c(F)cccc2OCc2ccc(F)c(F)c2)n1 [Example 45] | 70% | 80% | 80% | –
CC(C)(F)c1nc(N)nc(Nc2c(F)cc(F)cc2OCc2ccccc2)n1 [Example 60] | 100% | 100% | 98% | 100%
CC(C)(F)c1nc(N)nc(Nc2c(OCc3ccccc3)cc(F)c(F)c2F)n1 [Example 69] | 100% | 100% | 100% | 100%
CC(C)(F)c1nc(N)nc(Nc2c(F)cccc2OCc2c(Cl)cccc2Cl)n1 [Example 78] | 75% | 100% | 100% | –
CC(C)(F)c1nc(N)nc(Nc2c(F)cccc2OC(F)(F)c2ccccc2)n1 [Example 83] | 100% | 100% | 100% | –
COC(C)(C)c1nc(N)nc(Nc2c(F)cccc2OCc2ccccc2)n1 [Example 91] | 100% | 100% | 100% | 100%
CCc1ccc(COc2cccc(F)c2Nc2nc(N)nc(C(C)(C)F)n2)cc1 [Example 94] | – | – | 100% | 70%
CC(F)(F)c1nc(N)nc(Nc2c(F)cccc2OCc2ccccc2)n1 [Example 96] | 95% | 100% | 80% | 100%
COc1cccc(COc2cc(F)c(F)c(F)c2Nc2nc(N)nc(C(C)(C)F)n2)c1 [Example 98] | 100% | 100% | 80% | 90%
CC(C)(F)c1nc(N)nc(Nc2c(F)cccc2OCc2ccsc2Cl)n1 [Example 107] | 100% | 100% | 75% | 75%
CC(C)(F)c1nc(N)nc(Nc2c(F)cccc2OCc2ccc(Cl)s2)n1 [Example 120] | 90% | 100% | 75% | –
CC(C)c1ccc(COc2cccc(F)c2Nc2nc(N)nc(C(C)(C)F)n2)cc1 [Example 143] | – | – | 90% | 100%
CCOc1cccc(COc2cccc(F)c2Nc2nc(N)nc(C(C)(C)F)n2)c1 [Example 149] | 90% | 75% | 85% | –

Compound | herbicidal activity (Setaria faberi) | herbicidal activity (Echinocloa crus-galli) | herbicidal activity (Alopercurus myosuroides) | herbicidal activity (Amaranthus retroflexus)
CC(C)=C(F)c1nc(N)nc(Nc2c(F)ccc(F)c2OCc2ccccc2)n1 [Example 160] | 75% | – | 85% | –
CC(C)(F)c1nc(N)nc(Nc2c(F)c(Br)cc(F)c2OCc2ccccc2)n1 [Example 163] | 100% | 100% | 100% | –
COc1cccc(COc2c(F)cc(F)c(F)c2Nc2nc(N)nc(C(C)(C)F)n2)c1 [Example 164] | 100% | 100% | 100% | –
CC(C)(F)c1nc(N)nc(Nc2c(F)ccc(F)c2OCc2ccsc2)n1 [Example 174] | 100% | 100% | 100% | –
CC(C)(F)c1nc(N)nc(Nc2c(F)cccc2OCc2c(F)cccc2Cl)n1 [Example 177] | 95% | 100% | 85% | –
COc1ccc(COc2c(F)cc(F)c(F)c2Nc2nc(N)nc(C(C)(C)F)n2)cc1 [Example 180] | 100% | 100% | 90% | –
Cc1ccccc1COc1c(F)cc(F)c(F)c1Nc1nc(N)nc(C(C)(C)F)n1 [Example 181] | 100% | 100% | 98% | –
Cc1cccc(COc2c(F)cc(F)c(F)c2Nc2nc(N)nc(C(C)(C)F)n2)c1 [Example 182] | 100% | 100% | 100% | –
Nc1nc(Nc2c(F)cccc2OCc2ccccc2)nc(C2(F)CC2)n1 [Example 184] | – | 98% | 85% | 95%
COc1cccc(COc2ccc(F)c(F)c2Nc2nc(N)nc(C(C)(C)F)n2)c1 [Example 185] | 100% | 100% | 98% | –
Nc1nc(Nc2c(F)ccc(F)c2OCc2ccccc2)nc(C2(F)CC2)n1 [Example 187] | 100% | 100% | 85% | –
Nc1nc(Nc2c(F)ccc(F)c2OCc2ccccc2)nc(C(F)C2CC2)n1 (centres unmarked) [Example 189] | 100% | 100% | 98% | –
CCOc1ccc(COc2c(F)ccc(F)c2Nc2nc(N)nc(C(C)(C)F)n2)cc1 [Example 193] | 100% | 95% | 80% | –
CC(F)c1nc(N)nc(Nc2c(F)ccc(F)c2OCc2ccccc2)n1 (centres unmarked) [Example 196] | 100% | 100% | 98% | –
CC1(c2nc(N)nc(Nc3c(F)c(F)cc(F)c3OCc3ccccc3)n2)CCC1 [Example 201] | 100% | 100% | 100% | –
CC(C)(F)c1nc(N)nc(Nc2c(F)c(F)cc(F)c2OCc2ccccc2F)n1 [Example 203] | 100% | 100% | 100% | –
CC(C)(F)c1nc(N)nc(Nc2c(F)c(F)cc(F)c2OCc2ccc(F)cc2)n1 [Example 205] | 100% | 100% | 100% | –
CC(C)(F)c1nc(N)nc(Nc2c(F)c(F)cc(F)c2OCc2ccccc2C2CC2)n1 [Example 218] | 100% | 85% | 95% | –
COCc1ccc(COc2c(F)cc(F)c(F)c2Nc2nc(N)nc(C(C)(C)F)n2)cc1 [Example 220] | 90% | 95% | 98% | –
COC(C)(C)c1nc(N)nc(Nc2c(F)c(F)cc(F)c2OCc2cccc(C)c2)n1 [Example 227] | 85% | 75% | 90% | –
Cc1cccc(C)c1COc1c(F)cc(F)c(F)c1Nc1nc(N)nc(C(C)F)n1 (centres unmarked) [Example 255] | 90% | 95% | 90% | –

— patent US11992012B2, “Diaminotriazine compounds” (BASF SE, priority 2018, dated 2024)
